{"source": "patent US10479819B2", "about": "(priority 2014, dated 2019)", "key": {"human GCGR": {"target": "T1, human GCGR (Homo sapiens, UniProt P47871)", "T1 construct": "expressed in transfected cells", "T1 sequence (P47871 26-477)": "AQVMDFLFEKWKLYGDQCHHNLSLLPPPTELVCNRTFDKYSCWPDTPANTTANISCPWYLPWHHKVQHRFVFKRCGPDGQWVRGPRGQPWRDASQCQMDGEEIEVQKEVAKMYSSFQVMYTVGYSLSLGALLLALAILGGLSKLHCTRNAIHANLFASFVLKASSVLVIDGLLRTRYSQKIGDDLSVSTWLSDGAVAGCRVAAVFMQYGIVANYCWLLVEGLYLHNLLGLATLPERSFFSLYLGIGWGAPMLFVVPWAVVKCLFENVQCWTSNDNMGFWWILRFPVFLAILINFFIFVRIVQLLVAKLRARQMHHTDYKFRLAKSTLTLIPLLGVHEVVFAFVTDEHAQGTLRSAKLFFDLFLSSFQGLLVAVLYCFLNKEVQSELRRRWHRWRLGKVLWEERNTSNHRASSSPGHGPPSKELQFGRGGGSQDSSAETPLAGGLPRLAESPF", "experiment": "In vitro activity on GCGR, CRE-luciferase HEK-293 cells", "type": "cell-based", "experimental": "5000 of HEK-293 cells, which are used in CRE-luciferase system and express human GCGR or GLP-1R stably, were inoculated into 384 well plates according to […] DMEM/10% FBS media/well. […] After incubation, […] of luciferase reagent was added directly to each plate and mixed gently for 2 minutes. The plates were placed into an Elmer Perkin plate reader for reading. Concentration curve of the compound was made by drawing software Prism 5, and the EC50 value was calculated."}, "human GLP-1R": {"target": "T2, human GLP-1R (Homo sapiens, UniProt P43220)", "T2 construct": "expressed in transfected cells", "T2 sequence (P43220 24-463)": "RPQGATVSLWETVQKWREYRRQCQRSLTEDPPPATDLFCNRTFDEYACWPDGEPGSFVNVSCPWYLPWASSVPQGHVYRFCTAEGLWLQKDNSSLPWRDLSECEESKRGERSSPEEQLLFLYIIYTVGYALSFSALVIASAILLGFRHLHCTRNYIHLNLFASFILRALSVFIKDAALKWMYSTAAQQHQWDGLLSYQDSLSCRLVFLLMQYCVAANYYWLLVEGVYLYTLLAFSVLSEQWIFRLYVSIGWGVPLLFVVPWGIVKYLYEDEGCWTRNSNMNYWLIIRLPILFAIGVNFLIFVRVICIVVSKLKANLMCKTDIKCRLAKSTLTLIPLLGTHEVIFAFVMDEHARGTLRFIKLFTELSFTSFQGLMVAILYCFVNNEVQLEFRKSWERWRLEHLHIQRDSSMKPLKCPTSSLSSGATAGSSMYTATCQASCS", "experiment": "In vitro activity on GLP-1R, CRE-luciferase HEK-293 cells", "type": "cell-based", "details": "for GLP-1R/GCGR: ratio of EC50 GLP-1R to EC50 GCGR", "method_in_brief": "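HEK-293 cells stably expressing human GLP-1R or human GCGR with CRE-luciferase reporter, 5000 cells/well in DMEM/10% FBS, exposed to compound. Luminescence read after luciferase reagent; EC50 taken from concentration-response curves.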"}, "[1]": {"experiment": "Pharmacokinetic analysis after IV or SC administration in male CD1 mice", "details": "for clinical adverse effect: IV or SC route, male CD1 mice; for Tmax / half-life: mouse, in vivo, iv", "experimental": "Pharmacokinetic parameters of the drugs were calculated by methods of model dependence (for data obtained from IV) and model independence (data obtained from SC)."}, "male C57B1/6J mice": {"system": "male C57B1/6J mice", "experiment": "Oral glucose tolerance test in male C57B1/6J mice", "type": "in vivo", "details": "250 μg/kg; for AUC of blood glucose in all four OGTT curve periods (0-480 min) compared with carrier (PBS): P<0.05; for effect on oral glucose tolerance: male C57B1/6J mice", "experimental": "12-16 week-old male C57B1/6J mice (Nanjing University model animal research center) were randomly divided into groups 8 in each group, according to similar blood glucose (assessed by the blood samples obtained from the tail tip). After fasting (for 6 hours), the animals were administrated, and about 4 hours later, initial blood samples (fasting blood glucose level) were taken. Subsequently, the animals were administrated with an oral dose of glucose, and then put back into their cages (t=0). Blood glucose was measured at t=15 minutes, t=30 minutes, t=60 minutes, t=90 minutes and t=120 minutes. And then the animals were administrated with an oral dose of glucose again, and blood glucose was tracked until 8 hours."}}, "note": "Like-named read-outs stand apart in the source and are kept apart here. Starred links: 1 amine or outer side, 2 acyl side, 3 side chain; linkers in the order of their positions; H or OH if unused. Non-standard residues stand in square brackets, D forms with d. Residues, ends and D or L forms follow the SMILES beside them. Groups on a side chain read outwards from the residue. *: point of attachment. C18 diacid = O=C(O)CCCCCCCCCCCCCCCCC(=O)*; γGlu = O=C(O)[C@H](CCC(=O)[*:2])N[*:1]; Palmitoyl = CCCCCCCCCCCCCCCC(=O)*; PEG2 = NCCOCCOCCC(=O)O; Aib = CC(C)(N)C(=O)O"}
{"smiles": "CCCCCCCCCCCCCCCC(=O)NCCOCCOCCC(=O)NCCOCCOCCC(=O)NCCCC[C@H](NC(=O)[C@H](C)NC(=O)[C@H](C)NC(=O)[C@H](CCCCN)NC(=O)[C@H](CCC(=O)O)NC(=O)[C@H](CC(=O)O)NC(=O)[C@H](CC(C)C)NC(=O)[C@H](Cc1ccc(O)cc1)NC(=O)[C@H](CCCCN)NC(=O)[C@H](CO)NC(=O)[C@H](Cc1ccc(O)cc1)NC(=O)[C@H](CC(=O)O)NC(=O)[C@H](CO)NC(=O)[C@@H](NC(=O)[C@H](Cc1ccccc1)NC(=O)[C@@H](NC(=O)CNC(=O)[C@H](CCC(N)=O)NC(=O)[C@@H](CO)NC(=O)[C@@H](N)Cc1c[nH]cn1)[C@@H](C)O)[C@@H](C)O)C(=O)N[C@@H](CCC(=O)O)C(=O)N[C@@H](Cc1ccccc1)C(=O)N[C@H](C(=O)N[C@@H](CCC(=O)O)C(=O)N[C@@H](Cc1c[nH]c2ccccc12)C(=O)N[C@@H](CC(C)C)C(=O)N[C@@H](CC(C)C)C(=O)N[C@@H](CC(N)=O)C(=O)NCC(=O)NCC(=O)N1CCC[C@H]1C(=O)N[C@@H](CO)C(=O)N[C@@H](CO)C(=O)NCC(=O)N[C@@H](C)C(=O)N1CCC[C@H]1C(=O)N1CCC[C@H]1C(=O)N1CCC[C@H]1C(=O)N[C@@H](CO)C(N)=O)[C@@H](C)CC", "note": "[Compound 23] (H-H[dS]QGTFTSDYSKYLDEKAAK([PEG2-PEG2-Palmitoyl])EFIEWLLNGGPSSGAPPPS-NH2)", "values": [{"measurement": "EC50", "setting": "human GCGR", "value": 0.43, "unit": "nM"}, {"measurement": "EC50", "setting": "human GLP-1R", "value": 0.13, "unit": "nM"}, {"measurement": "GLP-1R/GCGR", "setting": "human GLP-1R", "value": 0.30}, {"measurement": "clinical adverse effect", "setting": "[1]", "value": "no clinical adverse effect"}, {"measurement": "Tmax", "setting": "[1]", "value": "~12", "unit": "h"}, {"measurement": "half-life", "setting": "[1]", "value": "4 to 6", "unit": "h"}, {"measurement": "AUC of blood glucose in all four OGTT curve periods (0-480 min) compared with carrier (PBS)", "setting": "male C57B1/6J mice", "value": "significantly decreased"}, {"measurement": "effect on oral glucose tolerance", "setting": "male C57B1/6J mice", "value": "significantly reduced the oral glucose tolerance"}]}
{"smiles": "CCCCCCCCCCCCCCCC(=O)N[C@@H](CCC(=O)NCCOCCOCCC(=O)NCCOCCOCCC(=O)NCCCC[C@H](NC(=O)[C@H](C)NC(=O)[C@H](C)NC(=O)[C@H](CCCCN)NC(=O)[C@H](CCC(=O)O)NC(=O)[C@H](CC(=O)O)NC(=O)[C@H](CC(C)C)NC(=O)[C@H](Cc1ccc(O)cc1)NC(=O)[C@H](CCCCN)NC(=O)[C@H](CO)NC(=O)[C@H](Cc1ccc(O)cc1)NC(=O)[C@H](CC(=O)O)NC(=O)[C@H](CO)NC(=O)[C@@H](NC(=O)[C@H](Cc1ccccc1)NC(=O)[C@@H](NC(=O)CNC(=O)[C@H](CCC(N)=O)NC(=O)[C@@H](CO)NC(=O)[C@@H](N)Cc1c[nH]cn1)[C@@H](C)O)[C@@H](C)O)C(=O)N[C@@H](CCC(=O)O)C(=O)N[C@@H](Cc1ccccc1)C(=O)N[C@H](C(=O)N[C@@H](CCC(=O)O)C(=O)N[C@@H](Cc1c[nH]c2ccccc12)C(=O)N[C@@H](CC(C)C)C(=O)N[C@@H](CC(C)C)C(=O)N[C@@H](CC(N)=O)C(=O)NCC(=O)NCC(=O)N1CCC[C@H]1C(=O)N[C@@H](CO)C(=O)N[C@@H](CO)C(=O)NCC(=O)N[C@@H](C)C(=O)N1CCC[C@H]1C(=O)N1CCC[C@H]1C(=O)N1CCC[C@H]1C(=O)N[C@@H](CO)C(N)=O)[C@@H](C)CC)C(=O)O", "note": "[Compound 24] (H-H[dS]QGTFTSDYSKYLDEKAAK([PEG2-PEG2-γGlu-Palmitoyl])EFIEWLLNGGPSSGAPPPS-NH2)", "values": [{"measurement": "EC50", "setting": "human GCGR", "value": 0.58, "unit": "nM"}, {"measurement": "GLP-1R/GCGR", "setting": "human GLP-1R", "value": 0.28}, {"measurement": "clinical adverse effect", "setting": "[1]", "value": "no clinical adverse effect"}, {"measurement": "Tmax", "setting": "[1]", "value": "~12", "unit": "h"}, {"measurement": "half-life", "setting": "[1]", "value": "4 to 6", "unit": "h"}, {"measurement": "AUC of blood glucose in all four OGTT curve periods (0-480 min) compared with carrier (PBS)", "setting": "male C57B1/6J mice", "value": "significantly decreased"}, {"measurement": "effect on oral glucose tolerance", "setting": "male C57B1/6J mice", "value": "significantly reduced the oral glucose tolerance"}]}
{"smiles": "CSCC[C@H](NC(=O)[C@H](CC(C)C)NC(=O)[C@H](Cc1c[nH]c2ccccc12)NC(=O)[C@H](CCC(N)=O)NC(=O)[C@@H](NC(=O)[C@H](Cc1ccccc1)NC(=O)[C@H](CC(=O)O)NC(=O)[C@H](CCC(N)=O)NC(=O)[C@H](C)NC(=O)[C@H](CCCNC(=N)N)NC(=O)[C@H](CCCNC(=N)N)NC(=O)C(C)(C)NC(=O)[C@H](CC(=O)O)NC(=O)[C@H](CC(C)C)NC(=O)[C@H](CCCCN)NC(=O)[C@H](CCCCNC(=O)CCOCCOCCNC(=O)CCOCCOCCNC(=O)CC[C@H](NC(=O)CCCCCCCCCCCCCCCCC(=O)O)C(=O)O)NC(=O)[C@H](CO)NC(=O)[C@H](Cc1ccc(O)cc1)NC(=O)[C@H](CC(=O)O)NC(=O)[C@H](CO)NC(=O)[C@@H](NC(=O)[C@H](Cc1ccccc1)NC(=O)[C@@H](NC(=O)CNC(=O)[C@H](CCC(N)=O)NC(=O)[C@@H](CO)NC(=O)[C@@H](N)Cc1c[nH]cn1)[C@@H](C)O)[C@@H](C)O)C(C)C)C(=O)N[C@@H](CC(N)=O)C(=O)N[C@H](C(=O)NCC(=O)NCC(=O)N1CCC[C@H]1C(=O)N[C@@H](CO)C(=O)N[C@@H](CO)C(=O)NCC(=O)N[C@@H](C)C(=O)N1CCC[C@H]1C(=O)N1CCC[C@H]1C(=O)N1CCC[C@H]1C(=O)N[C@@H](CO)C(N)=O)[C@@H](C)O", "note": "[Compound 18] (H-H[dS]QGTFTSDYSK([PEG2-PEG2-γGlu-C18 diacid])KLD[Aib]RRAQDFVQWLMNTGGPSSGAPPPS-NH2; N-terminus assumed)", "values": [{"measurement": "EC50", "setting": "human GCGR; read-out: GCGR (EC50)", "value": 0.18, "unit": "nM"}, {"measurement": "GLP-1R/GCGR", "setting": "human GLP-1R", "value": 4.2}]}
{"smiles": "CCCCCCCCCCCCCCCC(=O)N[C@@H](CCC(=O)NCCOCCOCCC(=O)NCCOCCOCCC(=O)NCCCC[C@H](NC(=O)[C@H](CO)NC(=O)[C@H](Cc1ccc(O)cc1)NC(=O)[C@H](CC(=O)O)NC(=O)[C@H](CO)NC(=O)[C@@H](NC(=O)[C@H](Cc1ccccc1)NC(=O)[C@@H](NC(=O)CNC(=O)[C@H](CCC(N)=O)NC(=O)[C@@H](CO)NC(=O)[C@@H](N)Cc1c[nH]cn1)[C@@H](C)O)[C@@H](C)O)C(=O)N[C@@H](CCCCN)C(=O)N[C@@H](CC(C)C)C(=O)N[C@@H](CC(=O)O)C(=O)NC(C)(C)C(=O)N[C@@H](CCCNC(=N)N)C(=O)N[C@@H](CCCNC(=N)N)C(=O)N[C@@H](C)C(=O)N[C@@H](CCC(N)=O)C(=O)N[C@@H](CC(=O)O)C(=O)N[C@@H](Cc1ccccc1)C(=O)N[C@H](C(=O)N[C@@H](CCC(N)=O)C(=O)N[C@@H](Cc1c[nH]c2ccccc12)C(=O)N[C@@H](CC(C)C)C(=O)N[C@@H](CCSC)C(=O)N[C@@H](CC(N)=O)C(=O)N[C@H](C(=O)NCC(=O)NCC(=O)N1CCC[C@H]1C(=O)N[C@@H](CO)C(=O)N[C@@H](CO)C(=O)NCC(=O)N[C@@H](C)C(=O)N1CCC[C@H]1C(=O)N1CCC[C@H]1C(=O)N1CCC[C@H]1C(=O)N[C@@H](CO)C(N)=O)[C@@H](C)O)C(C)C)C(=O)O", "note": "[Compound 17]", "values": [{"measurement": "EC50", "setting": "human GCGR; read-out: GCGR (EC50)", "value": 0.58, "unit": "nM"}, {"measurement": "GLP-1R/GCGR", "setting": "human GLP-1R", "value": 1.2}]}
